Results published in patent publication US20080167314A1, “Condensed Imidazole Compound And Use Thereof” (priority 2004, published 2008).

| SMILES | melting point |
| --- | --- |
| Cc1cc(-c2nc3cc(C(C)(C)C)cnn3c2-c2ccnc(NC(=O)c3ccc(F)cc3)c2)ccc1F [Example 41-5, N-{4-[7-tert-butyl-2-(4-fluoro-3-methylphenyl)imidazo[1,2-b]pyridazin-3-yl]-2-pyridyl}-4-fluorobenzamide] | 201 to 202 °C |
| CC(=O)Nc1cc(-c2c(-c3cccc(C)c3)nc3cccnn23)ccn1 [Example Compound 20-7, N-{4-[2-(3-methylphenyl)imidazo[1,2-b]pyridazin-3-yl]pyridin-2-yl}acetamide] | 227 to 228 °C |
| CCC(=O)Nc1cc(-c2c(-c3ccc(Cl)cc3)nc3cccnn23)ccn1 [Example Compound 21-28, N-{4-[2-(4-chlorophenyl)imidazo[1,2-b]pyridazin-3-yl]pyridin-2-yl}propanamide] | 204 to 205 °C |
| Cc1cccc(-c2nc3cccnn3c2-c2ccnc(NC3CCCCC3)c2)c1 [Example Compound 6-1, N-cyclohexyl-4-[2-(3-methylphenyl)imidazo[1,2-b]pyridazin-3-yl]pyridin-2-amine] | 169 to 170 °C |
| COc1ccc2nc(-c3ccc(F)c(C)c3)c(-c3ccnc(NC(=O)NC(C)C)c3)n2n1 [Example 53, N-{4-[2-(4-Fluoro-3-methylphenyl)-6-methoxyimidazo[1,2-b]pyridazin-3-yl]pyridin-2-yl}-N′-isopropylurea] | 233 to 234 °C |
| Cc1cccc(-c2nc3cccnn3c2-c2ccnc(NCCN3CCCCC3)c2)c1 [Example Compound 6-14, 4-[2-(3-methylphenyl)imidazo[1,2-b]pyridazin-3-yl]-N-[2-(piperidin-1-yl)ethyl]pyridin-2-amine] | 143 to 144 °C |
| COc1ccc(C(=O)Nc2cc(-c3c(-c4cccc(Cl)c4)nc4cccnn34)ccn2)cc1.Cl | 236 to 238 °C |
| Cc1cccc(-c2nc3cccnn3c2-c2ccnc(NCc3cccs3)c2)c1 [Example Compound 6-15, 4-[2-(3-methylphenyl)imidazo[1,2-b]pyridazin-3-yl]-N-(2-thienylmethyl)pyridin-2-amine] | 185 to 186 °C |
| CSc1ccc2nc(-c3cccc(C)c3)c(-c3ccnc(NC4CCCCC4)c3)n2n1 [Example 10, N-Cyclohexyl-4-[2-(3-methylphenyl)-6-(methylthio)imidazo[1,2-b]pyridazin-3-yl]pyridin-2-amine] | 150 to 151 °C |
| CCC(=O)Nc1cc(-c2c(-c3ccc(F)c(C)c3)nc3cccnn23)ccn1 [Example Compound 21-18, N-{4-[2-(4-fluoro-3-methylphenyl)imidazo[1,2-b]pyridazin-3-yl]pyridin-2-yl}propanamide] | 166 to 167 °C |

Continued, values first:

| melting point | SMILES |
| --- | --- |
| 224 to 225 °C | Cc1cc(-c2nc3cccnn3c2-c2ccnc(NC(=O)c3ccnc(Cl)c3)c2)ccc1F [Example 42-25, 2-chloro-N-{4-[2-(4-fluoro-3-methylphenyl)imidazo[1,2-b]pyridazin-3-yl]pyridin-2-yl}isonicotinamide] |
| 240 to 241 °C | CCNC(=O)Nc1cc(-c2c(-c3ccc(F)c(C)c3)nc3c(C)ccnn23)ccn1 [Example 48-3, N-{4-[2-(4-fluoro-3-methylphenyl)-8-methylimidazo[1,2-b]pyridazin-3-yl]-2-pyridyl}-N′-ethylurea] |
| 196 to 197 °C | CCC(C)NC(=O)Nc1cc(-c2c(-c3ccc(F)c(C)c3)nc3cccnn23)ccn1 (stereo not drawn) [Example 47-3, N-(sec-butyl)-N′-{4-[2-(4-fluoro-3-methylphenyl)imidazo[1,2-b]pyridazin-3-yl]pyridin-2-yl}urea] |
| 238 to 240 °C | Cc1cncc(C(=O)Nc2cc(-c3c(-c4ccc(F)c(C)c4)nc4cccnn34)ccn2)c1 [Example 42-30, N-{4-[2-(4-fluoro-3-methylphenyl)imidazo[1,2-b]pyridazin-3-yl]pyridin-2-yl}-5-methylnicotinamide] |
| 193 to 194 °C | COc1ccc(C(=O)Nc2nccc(-c3c(-c4cccc(C)c4)nc4cccnn34)n2)cc1 [Example 44-2, 4-methoxy-N-{4-[2-(3-methylphenyl)imidazo[1,2-b]pyridazin-3-yl]pyrimidin-2-yl}benzamide] |
